Measurements published in US5994563A, “Arylmethylphosphonic acid derivatives useful in treating bone wasting diseases” (Ortho Pharmaceutical Corporation, priority 1999, dated 1999).
Where two headings read alike, the source gives them in different places.

Experiments:
[1] = system: human osteoblastic (TE85) tyrosinephosphate phosphatase; type: biochemical; details: for IC50: read-out: TF85 IC50
[2] = system: human TE85 osteoblast-line cells; experiment: Osteoblast Cell Proliferation (3H-thymidine incorporation); type: cell-based; details: 24 h, read-out: Osteoblast Cell Prolif % X Control; for activity at 100 µM: concentration of drug 100 μM
Text: The action of select compounds to stimulate osteoblast growth can be measured in culture by assuming the rate of DNA synthesis is proportional to the rate of ^3 H-thymidine incorporation into DNA. Only cells undergoing mitosis will synthesize new DNA and thus only these cells will incorporate the radiolabelled DNA-specific thymidine. The stimulation of the proliferation and differentiation of bone-forming cells, osteoblasts, is a prerequisite for an increase in bone formation and bone mass. The ability of agents to increase osteoblast proliferation and differentiation can be predicted (reference) by their action on cultured osteoblast-line cells in vitro. In this test human TE85 osteoblast-line cells (100,000) were plated on 24 well plates in DMEM containing 5% fetal calf serum for 48 hours. After removal of the media, 0.3 mL of serum-free media containing 0.25% BSA was added to each well. After 24 hours, the treatments were added to the conditioned media for an additional 24 hours. Tritiated thymidine (0.6uCi) was added for the last two hours. After rinsing the cells with Dulbeccos PBS, the cells were released from the plate by trypsinizing with 0.25 mL trypsin (0.25%) for 5-10 min. An equal aliquot of 25% TCA was added and the cell lysate allowd to stand for 15 minutes at 4° C. The lysate was centrifuged for 10 minutes, the supernatant removed, and the pellet washed with 0.2 mL of cold 80% ethanol. After a second centrifugation, the pellet was suspended in 0.1 mL 0.1% Triton X-1 00. The pellet was then sonicated to remove all of the material from the sides of the tube. This material was placed into a scintillation vial. An additional 0.08 mL of the Triton was used to rinse the tube before placing into the vial. These mbined samples were quantitated by scintillation spectrometry.

CD45 [3] = target: T1, CD45 (Homo sapiens, UniProt P08575); details: read-out: IC50 (CD45)
T1 sequence (P08575 26-1306): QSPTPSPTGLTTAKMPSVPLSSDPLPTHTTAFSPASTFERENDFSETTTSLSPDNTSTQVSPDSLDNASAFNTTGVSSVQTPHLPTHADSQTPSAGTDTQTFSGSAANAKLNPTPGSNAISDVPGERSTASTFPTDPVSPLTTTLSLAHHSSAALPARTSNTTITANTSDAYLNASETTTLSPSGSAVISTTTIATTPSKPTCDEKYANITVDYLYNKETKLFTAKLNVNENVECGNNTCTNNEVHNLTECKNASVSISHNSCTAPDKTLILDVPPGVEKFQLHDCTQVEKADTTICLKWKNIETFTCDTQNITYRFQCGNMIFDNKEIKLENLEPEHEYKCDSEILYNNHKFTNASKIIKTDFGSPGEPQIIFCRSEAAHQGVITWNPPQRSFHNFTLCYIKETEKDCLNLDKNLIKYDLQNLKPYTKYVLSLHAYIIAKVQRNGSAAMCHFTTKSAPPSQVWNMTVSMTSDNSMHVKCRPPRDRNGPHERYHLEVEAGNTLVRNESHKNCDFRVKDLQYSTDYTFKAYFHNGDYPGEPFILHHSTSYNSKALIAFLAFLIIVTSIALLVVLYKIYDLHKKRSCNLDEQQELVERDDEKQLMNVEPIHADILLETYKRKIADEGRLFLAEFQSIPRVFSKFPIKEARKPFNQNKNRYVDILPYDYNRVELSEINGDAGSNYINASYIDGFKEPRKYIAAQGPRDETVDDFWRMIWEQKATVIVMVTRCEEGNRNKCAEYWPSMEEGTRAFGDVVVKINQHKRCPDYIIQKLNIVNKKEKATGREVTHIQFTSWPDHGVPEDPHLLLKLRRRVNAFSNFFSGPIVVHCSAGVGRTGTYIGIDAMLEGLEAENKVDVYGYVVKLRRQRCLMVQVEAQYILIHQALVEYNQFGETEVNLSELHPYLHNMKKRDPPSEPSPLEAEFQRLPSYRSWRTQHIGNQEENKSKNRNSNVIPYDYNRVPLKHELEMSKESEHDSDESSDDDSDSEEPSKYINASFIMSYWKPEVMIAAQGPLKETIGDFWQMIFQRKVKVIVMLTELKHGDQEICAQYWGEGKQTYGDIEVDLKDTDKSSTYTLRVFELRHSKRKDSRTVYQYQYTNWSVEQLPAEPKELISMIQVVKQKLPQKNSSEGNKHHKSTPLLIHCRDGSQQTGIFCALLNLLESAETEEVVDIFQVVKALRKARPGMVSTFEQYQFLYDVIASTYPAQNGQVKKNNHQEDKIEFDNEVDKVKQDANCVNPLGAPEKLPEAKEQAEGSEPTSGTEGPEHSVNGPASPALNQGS

CD45 [4] = target: T1, CD45; experiment: biochemical

Structure (SMILES) | IC50 [1] [µM] | other results
Cc1ccc(Oc2ccc([N+](=O)[O-])cc2C(O)P(=O)(O)O)cc1 (centres unmarked) [Example 14, [2-(4-Methyl)phenoxy-5-nitro]phenylhydroxymethyl phosphonic acid] | – | TF85 % @ 300 μM ([1]; te85 cell extract, 15 min): 90%
O=[N+]([O-])c1ccc(Sc2ccccc2)c(C(O)P(=O)(O)O)c1 (centres unmarked) [Example 17, (2-Phenylthio-5-nitro)phenylhydroxymethylphosphonic acid] | 28 | activity at 100 µM [2]: 119%
O=[N+]([O-])c1ccc(Sc2cccc(C(F)(F)F)c2)c(C(O)P(=O)(O)O)c1 (centres unmarked) [Example 20, [2-(3-Trifluoromethyl)phenylthio-5-nitro]phenylhydroxymethylphosphonic acid] | 2.4 | activity at 100 µM [2]: 139%
O=[N+]([O-])c1ccc(-c2ccccc2)c(C(O)P(=O)(O)O)c1 (centres unmarked) [Example 59, (2-Phenyl-5-nitro) phenylhydroxymethylphosphonic acid] | 10 | –
COc1ccccc1Sc1ccc([N+](=O)[O-])cc1C(O)P(=O)(O)O (centres unmarked) [Example 24, [2-(2-Methoxyphenylthio)-5-nitro]phenylhydroxymethylphosphonic acid] | 23 | –
O=Cc1ccc(OC(=O)c2ccccc2)c([N+](=O)[O-])c1 [Example 50, 3-Nitro-4-benzoyloxybenzaldehyde] | 17 | –
O=[N+]([O-])c1ccc(Sc2ccc(Cl)cc2)c(C(O)P(=O)(O)O)c1 (centres unmarked) [Example 19, [2-(4-Chlorophenylthio)-5-nitro]phenylhydroxymethylphosphonic acid] | – | TF85 % @ 300 μM ([1]; te85 cell extract, 15 min): 95%; IC50 (CD45 [3]; pH 6): 28 µM
O=[N+]([O-])c1ccc(SCCCc2ccccc2)c(C(O)P(=O)(O)O)c1 (centres unmarked) [Example 34, [2-(3-Phenylpropyl)thio-5-nitro]phenylhydroxy-methyl phosphonic acid] | 0.45 | activity at 100 µM [2]: 127%
O=[N+]([O-])c1cc(C(O)P(=O)(O)O)cs1 (centres unmarked) [Example 40, 2-Nitro-4-thienylhydroxymethylphosphosphonic acid] | – | TF85 % @ 300 μM ([1]; te85 cell extract, 15 min): 79%; IC50 (CD45 [3]; pH 6): 38 µM
O=C(c1cc([N+](=O)[O-])ccc1Cl)P(=O)(O)O [Example 58, (2-Chloro-5-nitro)phenyloxomethylphosphonic acid] | 5 | –
O=[N+]([O-])c1ccc(C(O)P(=O)(O)O)s1 (centres unmarked) [Example 43, 5-Nitro-2-thiophenehydroxymethylphosphonic acid] | 1 | –
O=[N+]([O-])c1ccc(O)c(C(O)P(=O)(O)O)c1 (centres unmarked) [Example 7, (2-Hydroxy-5-nitro)phenylhydroxymethylphosphonic acid] | 30 | –
O=[N+]([O-])c1ccc(Sc2ccccn2)c(C(O)P(=O)(O)O)c1 (centres unmarked) [Example 22, [2-(2-Pyridyl)thio-5-nitro]phenylhydroxymethyl-phosphonic acid] | 14 | IC50 (CD45 [3]; pH 6): 1 µM
O=[N+]([O-])c1ccc(SC2CCCCC2)c(C(O)P(=O)(O)O)c1 (centres unmarked) [Example 26, (2-Cyclohexylthio-5-nitro)phenylhydroxymethylphosphonic acid] | 5.8 | IC50 (CD45 [3]; pH 6): 1.2 µM; activity at 100 µM [2]: 138%
O=[N+]([O-])c1cc(C(O)P(=O)(O)O)ccc1Sc1ccc(Br)cc1 (centres unmarked) [Example 54, [3-Nitro-4-(4-bromophenylthio)]phenylhydroxymethylphosphonic acid] | – | TF85 % @ 30 μM ([1]; te85 cell extract, 15 min): 75%
O=[N+]([O-])c1ccc(SCc2ccccc2)c(C(O)P(=O)(O)O)c1 (centres unmarked) [Example 28, (2-Benzylthio-5-nitro)phenylhydroxymethylphosphonic acid] | 6.3 | IC50 (CD45 [4]): 6 µM; activity at 100 µM [2]: 111%
O=[N+]([O-])c1cc(C(O)P(=O)(O)O)ccc1OCc1ccc(Cl)c(Cl)c1 (centres unmarked) [Example 56, [3-Nitro-4-(3,4-dichlorobenzyloxy)]phenylhydroxymethylphosphonic acid] | 30 | –
CCCCCCSc1ccc([N+](=O)[O-])cc1C(O)P(=O)(O)O (centres unmarked) [Example 38, [2-(1-N-hexanyl)thio-5-nitro]phenylhydroxy-methylphosphonic acid] | 1 | –
O=[N+]([O-])c1ccc(Cl)c(C(O)P(=O)(O)O)c1 (centres unmarked) [Example 2, (2-Chloro-5-nitro)phenylhydroxymethylphosphonic acid] | 35 | IC50 (CD45 [3]; enzyme from Jurkat cell (JEG-6) membranes, pH 6.0, 90 minutes at 37° C.): 20 µM
O=[N+]([O-])c1ccc(Oc2cccnc2)c(C(O)P(=O)(O)O)c1 (centres unmarked) [Example 15, [2-(3-Pyridyl)oxy-5-nitro]phenylhydroxymethyl-phosphonic acid] | 33 | –
O=[N+]([O-])c1ccc(Oc2ccccc2)c(C(O)P(=O)(O)O)c1 (centres unmarked) [Example 12, (2-Phenoxy-5-nitro)phenylhydroxymethylphosphonic acid] | 18 | IC50 (CD45 [4]): 14 µM; activity at 100 µM [2]: 112%
Cc1ccc(CSc2ccc([N+](=O)[O-])cc2C(O)P(=O)(O)O)cc1 (centres unmarked) [Example 31, [2-(4-Methyl)benzylthio-5-nitro]phenylhydroxymethylphosphonic acid] | 0.82 | activity at 30 µM ([2]; concentration of drug 30 μM): 159%
Cc1ccc(CCSc2ccc([N+](=O)[O-])cc2C(O)P(=O)(O)O)cc1 (centres unmarked) [Example 32, [2-(4-Methylphenylethylthio)-5-nitro]phenyl-hydroxymethyl phosphonic acid] | – | TF85 % @ 300 μM ([1]; te85 cell extract, 15 min): 73%
Cc1ccccc1CSc1ccc([N+](=O)[O-])cc1C(O)P(=O)(O)O (centres unmarked) [Example 29, [2-(2-Methyl)benzylthio-5-nitro]phenylhydroxymethyl phosphonic acid] | 9.4 | –
CCCCCCCCCCSc1ccc([N+](=O)[O-])cc1C(O)P(=O)(O)O (centres unmarked) [Example 36, [2-(1-N-decyl)thio-5-nitro]phenylhydroxymethylphosphonic acid] | 1 | –
Cc1cccc(CSc2ccc([N+](=O)[O-])cc2C(O)P(=O)(O)O)c1 (centres unmarked) [Example 30, [2-(3-Methyl)benzylthio-5-nitro]phenylhydroxymethyl phosphonic acid] | 4.4 | –
Cc1ccc(C(O)P(=O)(O)O)cc1[N+](=O)[O-] (centres unmarked) [Example 52, (3-Nitro-4-methyl)phenylhydroxymethyphosphonic acid] | 30 | –
